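A five-concentration, 48-hour dose response in 96-well plates underlies each endpoint, interpolated linearly between surrounding concentrations. The concentration for 50% growth inhibition is given as GI50. Definition used: TGI = concentration required for complete inhibition of growth.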
Key:
Test in all cases: inhibition of tumour cell growth, NCI panel, 48 h
[1] = test system: U251 CNS
[2] = test system: UACC-62 melanoma
[3] = test system: OVCAR-4 ovarian
[4] = test system: EKVX NSCLC
[5] = test system: DU-145 prostate
[6] = test system: MDA-MB-435
[7] = test system: 786-0 renal
[8] = test system: M14 melanoma
[9] = test system: OVCAR-3 ovarian
[10] = test system: K-562 leukemia

| Compound | TGI [1] [µM] | TGI [2] [µM] | TGI [3] [µM] | TGI [4] [µM] | TGI [5] [µM] | TGI [6] [µM] | TGI [7] [µM] | TGI [8] [µM] | TGI [9] [µM] | TGI [10] [µM] | GI50 [1] [µM] | GI50 [2] [µM] | GI50 [3] [µM] | GI50 [4] [µM] | GI50 [5] [µM] | GI50 [6] [µM] | GI50 [8] [µM] | GI50 [9] [µM] | GI50 [10] [µM] |
| --- | --- | --- | --- | --- | --- | --- | --- | --- | --- | --- | --- | --- | --- | --- | --- | --- | --- | --- | --- |
| O=C(c1cccs1)N(C(=S)OC12CC3CC(CC(C3)C1)C2)c1ccccc1 | > 100 | 84.8 | > 100 | 55.6 | > 100 | > 100 | > 100 | 43 | > 100 | > 100 |  |  |  |  |  |  |  |  |  |
| COC(=O)c1sc(=S)sc1SCc1ccc(CSc2sc(=S)sc2C(=O)OC)cc1 | > 100 | > 100 | > 100 | > 100 | > 100 | > 100 | > 100 | > 100 | > 100 | > 100 |  |  |  |  |  |  |  |  |  |
| CC1=CC(=O)c2ccccc2C1=O | 26.4 | 10.3 | 9.54 | 31.8 | 29.4 | 3.81 | 28.5 | 15.8 | 23.4 |  |  |  |  |  |  |  |  |  |  |
| O=C(C[n+]1ccc2ccccc2c1)c1ccc2ccc3ccccc3c2c1 | 14.6 | 9.72 | 19.7 | 19.3 | 21.3 | 7.75 | 18 | 10.6 | 17.7 | 1.99 |  |  |  |  |  |  |  |  |  |
| COc1ccc(CC(=O)N2CCC3(C)CC(=O)CC=C23)cc1OC (stereo unspecified) | > 100 | > 100 | > 100 | > 100 | > 100 | > 100 | > 100 | > 100 | > 100 | > 100 |  |  |  |  |  |  |  |  |  |
| CC12CC3OC(=O)C1COC14OC5(C2C1=O)C(O)(CCC1C4CC(O)C2(O)CC=CC(=O)C12C)C(=O)OC35C (stereo unspecified) | > 100 | > 100 | > 100 | > 100 | > 100 | > 100 | > 100 | > 100 | > 100 | > 100 |  |  |  |  |  |  |  |  |  |
| CNc1ccc2c(c1)[C@@]1(C)c3ccccc3[C@@H](C2)N1C | 47.5 | 35.7 | > 100 | 97.3 | > 100 | 39.1 | 34.3 | 49.6 | 50.5 | 67.5 |  |  |  |  |  |  |  |  |  |
| C=CCc1cccc2cc(C(=O)Nc3ccccc3)c(=N)oc12 | > 100 | > 100 | 74.9 |  | > 100 | > 100 | > 100 | > 100 | > 100 | > 100 |  |  |  |  |  |  |  |  |  |
| COc1ccc(C(=O)/C=C/c2cccc([N+](=O)[O-])c2)c(OC)c1 | 1.72 | 2.79 | > 50 | > 50 | > 50 | > 50 |  | > 50 | > 50 | 3.08 | 0.881 | 1.14 | 2.11 | > 50 | 1.75 | 1.76 | 1.62 | 1.72 | 0.999 |
| COc1ccc2c(c1)[nH]c1c(/C=C/c3ccccc3)nccc12 | 38.9 | 28.9 | > 100 | 29.6 | 51.8 | 49 | 42.2 | 35.3 | 36.9 | > 100 |  |  |  |  |  |  |  |  |  |
| CC1=NN(c2cccc(Cl)c2)C2(SCC(=O)N2c2nc3ccccc3s2)/C1=C\c1cccs1 (stereo unspecified) | 41.6 |  | 66 | 38.4 | > 100 | > 100 | 41.1 | 89.3 | 86.8 | 26.4 |  |  |  |  |  |  |  |  |  |
| CCn1c(-c2ccc(N=NNc3ccc(-c4n[nH]c(=S)n4CC)cc3)cc2)n[nH]c1=S |  |  | 5.41 | 75.4 | 8.17 |  | 37.2 | 8.2 | 5.61 | > 100 |  |  |  |  |  |  |  |  |  |
| CC(=O)C1=C(C)N(c2ccc(C)cc2)C2(O)C=CC(=O)C3C(=O)N(c4ccccc4)C(=O)C132 (stereo unspecified) | 65.6 | 35.6 | 41.2 | 95.5 | 74.3 | > 100 | > 100 | > 100 | > 100 | 66.3 |  |  |  |  |  |  |  |  |  |
| CNC(=O)OCc1c(CO)nc(SC)n1C | > 100 | > 100 | > 100 | > 100 |  |  |  |  | > 100 | > 100 |  |  |  |  |  |  |  |  |  |
| [N-]=[N+]=CC(=O)c1ccccc1C#CCCc1ccccc1 | 88.5 | 69.8 | > 100 | 75.5 |  |  |  | > 100 | 61.5 | > 100 |  |  |  |  |  |  |  |  |  |
| NC(=O)c1cc2ccc(O)cc2oc1=Nc1ccccc1 | > 100 | > 100 | > 100 | > 100 | > 100 | > 100 | > 100 | > 100 | > 100 | > 100 |  |  |  |  |  |  |  |  |  |
| CCC1CN(C(=O)c2ccccc2)C(Cc2c[nH]c3ccccc23)C(=O)C1CC(=O)OC (stereo unspecified) | > 100 | > 100 | > 100 | > 100 | > 100 | > 100 |  | > 100 |  | > 100 |  |  |  |  |  |  |  |  |  |
| NCCCCc1cc(O)c2c(c1O)C(=O)c1ccccc1C2=O | > 43 | 32.6 | 35 | 33.5 | 26.8 | 43.6 | 19.6 | 33.6 | 19.4 | 17.3 |  |  |  |  |  |  |  |  |  |
| CCCNC(=O)CCC(C)C1CCC2C3C(C[C@H](OC(C)=O)[C@]12C)[C@@]1(C)CCC2(C[C@H]1C[C@H]3OC(C)=O)OOC1(CC[C@]3(C)C4C[C@H](OC(C)=O)[C@]5(C)C(C(C)CCC(=O)NCCC)CCC5C4[C@H](OC(C)=O)C[C@@H]3C1)OO2 (stereo partly specified) | > 100 | > 100 | > 100 | > 100 | > 100 | > 100 | > 100 | > 100 | > 100 | > 100 |  | > 67 |  |  |  |  |  |  |  |
| C[C@H](NC(=O)c1ccc(CNC(=O)/C=C/c2cccc(Oc3ccccc3)c2)cc1)c1ccccc1 | > 100 | > 100 | > 100 | > 100 | > 100 | > 100 | > 100 | > 100 | > 100 | > 100 |  |  |  |  |  |  |  |  |  |
| Nc1ccccc1S(=O)(=O)c1ccccc1 | > 100 | > 100 | > 100 | > 100 |  |  |  | > 100 | > 100 | > 100 |  |  |  |  |  |  |  |  |  |
